Values of other authors in patent US7956212B2 (XenoPort, Inc., priority 2004, dated 2011).

Assays:
[1] = following oral administration
[2] = patients, administered alone
[3] = rats

CC(C)(C)C(=O)Oc1ccc(C[C@H](N)C(=O)O)cc1O [NB-355]
levels of levodopa [1]: low

N[C@@H](Cc1ccc(O)c(O)c1)C(=O)O [levodopa, L-3,4-dihydroxyphenylalanine]
half-life of levodopa in plasma [2]: about 50 min

C[C@@](Cc1ccc(O)c(O)c1)(NN)C(=O)O [carbidopa]
absorption following rectal administration [3]: poor
